Data published in the supplement of paper PMC4858399.
Counter-ions that a name gives are not always drawn.

Experiments:
Conditions in all cases: exposure time 48 h
[1] = tested on: Caenorhabditis elegans N2; experiment: AC50 for larval growth inhibition (Hill fit); higher = less potent
In short: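 C. elegans N2 L1 larvae, synchronised and plated at 50 per well in 96-well plates, were exposed for 48 h at 20°C to 0.5–200 µM chemical in K-medium with killed OP50 and 1% DMSO. Log-transformed extinction from a COPAS Biosort served as worm size, averaged per well. Wells containing at least 10 worms entered the fit. A constrained Hill fit by weighted genetic-algorithm regression yielded the AC50, censored when out of range.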

[2] = tested on: Caenorhabditis elegans N2; experiment: mean nematode size ln(EXT) after 48 h, plate-adjusted (DMSO control set to 6) (ln(EXT), control-adjusted); higher = larger nematodes / less growth inhibition
In short: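 Chemical at 0.5–200 µM was tested on synchronised C. elegans N2 L1 larvae grown for 48 h at 20°C in K-medium with killed OP50 and 1% DMSO. Per-worm Biosort extinction, cleared of debris by a growth model, was natural-logged and averaged per well to give mean size. Plates were normalised by subtracting the vehicle control mean and adding 6.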

[3] = tested on: Caenorhabditis elegans N2; experiment: lowest effective concentration for larval growth inhibition (size below effect threshold); higher = less potent
In short: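 In 96-well plates, 50 C. elegans N2 L1 larvae per well were cultured at 20°C for 48 h in K-medium with killed bacteria and 1% DMSO, plus the chemical at 0.5, 1, 5, 10, 50, 100 or 200 µM. Size was measured as per-worm extinction on a Biosort and log-transformed into well means. Taking the first dose where the plate-adjusted mean size sits under 5.665 and stays there at higher doses gives the lowest effective concentration.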

SMILES	AC50 for larval growth inhibition [1] [µM]	mean nematode size ln(EXT) (ln) ([2]; 0.5 µM)	mean nematode size ln(EXT) (ln) ([2]; 1 µM)	mean nematode size ln(EXT) (ln) ([2]; 5 µM)	mean nematode size ln(EXT) (ln) ([2]; 10 µM)	mean nematode size ln(EXT) (ln) ([2]; 50 µM)	mean nematode size ln(EXT) (ln) ([2]; 100 µM)	mean nematode size ln(EXT) (ln) ([2]; 200 µM)	lowest effective concentration [3] [µM]
C=CCc1cc(S(=O)(=O)c2ccc(O)c(CC=C)c2)ccc1O [4,4'-sulfonylbis[2-(prop-2-en-1-yl)phenol]]	190	5.87	5.88	5.9	5.89	5.39	5.1	4.49	50
CC(c1ccc(O)cc1)(c1ccc(O)cc1)c1ccc(O)cc1 [4,4’,4"-Ethane-1,1,1-triyltriphenol]	79.3	5.76	6.01	5.91	5.91	5.87	5.39	5.19	100
CC(C)(C)CC(C)(C)c1ccc(O)cc1 [4-(1,1,3,3-Tetramethylbutyl)phenol]	101	6.09	6.01	6.04	5.97	5.53	4.62	3.54	50
CCC(C)(C)c1ccc(O)cc1 [4-(2-methylbutan-2-yl)phenol]	> 200	5.8	5.81	5.74	5.76	5.75	5.92	4.97	200
CCC(C)c1ccc(O)cc1 (stereo unspecified) [4-(Butan-2-yl)phenol]	142	6.03	6.09	6.07	6.08	6.05	6.02	5.52	200
Nn1cnnc1 [4-Amino-4H-1,2,4-triazole]	> 200	5.81	5.85	5.83	5.8	5.57	5.78	5.36	200
Nc1ccc(N=Nc2ccccc2)cc1 [4-Aminoazobenzene]	31.4	5.63	5.75	5.62	5.49	4.06	3.92	3.23	5
Nc1ccc(S(=O)(=O)c2ccc(N)cc2)cc1 [4-Aminophenyl sulfone]	> 200	5.93	5.92	5.94	5.86	5.83	5.8	5.56	200
Nc1ccc(Cl)cc1N [4-Chloro-o-phenylenediamine]	39	5.89	5.85	5.91	5.85	5.36	5.03	5.01	50
Clc1ccc(C(Cl)(Cl)Cl)cc1 [4-Chlorobenzotrichloride]	112	5.94	5.93	5.97	5.9	5.65	4.93	3.11	50
Cc1ccc(Cl)cc1 [4-Chlorotoluene]	> 200	5.8	5.74	5.72	5.77	5.8	5.63	5.37	100
CC(C)(c1ccccc1)c1ccc(O)cc1 [4-Cumylphenol]	110	6.04	5.96	5.97	5.84	5.92	5.3	4.34	100
CCCCCCCCCCCCc1ccc(S(=O)(=O)O)cc1 [4-Dodecylbenzenesulfonic acid]	27.5	5.45	5.6	5.55	5.63	4.03	3.77	3.53	≤ 0.5
CCCCCCc1ccc(O)cc1O [4-Hexylresorcinol]	181	6	5.89	5.83	5.84	5.6	5.03	4.47	50
O=C(O)c1ccc([N+](=O)[O-])cc1 [4-Nitrobenzoic acid]	> 200	6	5.57	5.86	5.85	5.77	5.91	5.53	200
O=C(Oc1ccc(Br)cc1)N1CCN2CCC1CC2 [4-bromophenyl 1,4-diazabicyclo[3.2.2]nonane-4-carboxylate]	> 200	5.84	5.83	5.81	5.83	5.65	5.6	5.33	50
Cn1sc(Cl)cc1=O [5-Chloro-2-methyl-3(2H)-isothiazolone]	> 200	5.96	5.93	5.95	6	5.9	5.82	5.55	200
O=c1[nH]cc(F)c(=O)[nH]1 [5-Fluorouracil]	162	5.8	5.84	5.91	5.82	5.63	5.3	4.19	50
CCCCCCCC1CCC(=O)O1 (stereo unspecified) [5-Heptyldihydro-2(3H)-furanone]	182	5.94	5.81	5.79	5.79	5.76	5.87	4.09	200
NC(=O)N/N=C/c1ccc([N+](=O)[O-])o1 [5-Nitro-2-furaldehyde semicarbazone]	> 200	5.78	5.76	5.75	5.76	5.65	5.61	5.24	50
CC(C)c1cccc(C(C)C)c1N1C(=O)c2ccc(O)cc2C1=O [5HPP-33]	58.6	5.78	5.75	5.75	5.76	5.62	4.88	4.78	50
Cc1ccc2ncccc2c1 [6-Methylquinoline]	> 200	5.98	5.83	5.87	5.76	5.74	5.67	5.52	200

SMILES	AC50 for larval growth inhibition [1] [µM]	mean nematode size ln(EXT) (ln) ([2]; 0.5 µM)	mean nematode size ln(EXT) (ln) ([2]; 1 µM)	mean nematode size ln(EXT) (ln) ([2]; 5 µM)	mean nematode size ln(EXT) (ln) ([2]; 10 µM)	mean nematode size ln(EXT) (ln) ([2]; 50 µM)	mean nematode size ln(EXT) (ln) ([2]; 100 µM)	mean nematode size ln(EXT) (ln) ([2]; 200 µM)	lowest effective concentration [3] [µM]
Cc1c2ccccc2c(C)c2c1ccc1ccccc12 [7,12-Dimethylbenz(a)anthracene]	110	6.05	5.87	5.53	5.48	5.02	4.89	4	5
Oc1cccc2cccnc12 [8-Hydroxyquinoline]	> 200	5.89	5.92	5.91	5.83	5.78	5.72	5.56	200
Oc1cc2ccccc2c2ccccc12 [9-Phenanthrol]	119	5.85	5.85	5.84	5.72	5.41	4.71	4.03	50
C=CCCCCCCCCC(=O)O [10-Undecenoic acid]	> 200	5.77	6	5.9	5.88	5.76	5.8	5.62	200
O=C1O[C@H]([C@@H](O)CO)C([O-])=C1O.[Na+] [(+)-Sodium L-ascorbate]	132	5.84	5.88	5.78	5.85	5.29	5.05	3.96	50
CN1C(=O)CC[C@H]1c1cccnc1 [(-)-Cotinine]	> 200	5.86	5.93	5.88	5.82	5.9	5.87	5.65	200
C/C=C/c1ccc(OC)cc1 [(E)-Anethole]	> 200	6.06	5.98	6.01	6.06	5.97	5.96	5.49	200
Cc1nn(C)c(Oc2ccccc2)c1C=NOCc1ccc(C(=O)OC(C)(C)C)cc1 [(Z,E)-Fenpyroximate]	< 0.5	4.99	4.67	4.2	4.2	4.09	4.05	3.39	≤ 0.5
CC[C@H](C)[C@H]1O[C@]2(C=C[C@@H]1C)C[C@@H]1C[C@@H](C/C=C(\C)[C@@H](O[C@H]3C[C@H](OC)[C@@H](O[C@H]4C[C@H](OC)[C@@H](O)[C@H](C)O4)[C@H](C)O3)[C@@H](C)/C=C/C=C3\CO[C@@H]4[C@H](O)C(C)=C[C@@H](C(=O)O1)[C@]34O)O2.CO[C@H]1C[C@H](O[C@H]2[C@H](C)O[C@@H](O[C@@H]3/C(C)=C/C[C@@H]4C[C@@H](C[C@]5(C=C[C@H](C)[C@@H](C(C)C)O5)O4)OC(=O)[C@@H]4C=C(C)[C@@H](O)[C@H]5OC/C(=C\C=C\[C@@H]3C)[C@]54O)C[C@@H]2OC)O[C@@H](C)[C@@H]1O [Abamectin]	< 0.5	3.68	3.31	3.37	3.26	3.38	3.35	3.24	≤ 0.5
c1cc2c3c(cccc3c1)CC2 [Acenaphthene]	> 200	6.14	5.74	6.03	6.08	5.6	5.77	5.37	200
C1=Cc2cccc3cccc1c23 [Acenaphthylene]	> 200	5.93	5.96	5.94	5.98	5.92	5.83	5.37	200
CSC(=O)c1cccc2nnsc12 [Acibenzolar-S-Methyl]	> 200	5.65	5.73	5.67	5.6	5.37	5.36	5.36	10
O=C(O)CCCCC(=O)O [Adipic acid]	> 200	5.82	5.73	5.75	5.76	5.76	5.74	5.5	200
CCc1cccc(CC)c1N(COC)C(=O)CCl [Alachlor]	> 200	6.11	6.07	6.12	6.1	5.76	5.74	5.1	200
ClC1=C(Cl)C2(Cl)C3C4C=CC(C4)C3C1(Cl)C2(Cl)Cl (stereo unspecified) [Aldrin]	3.92	5.97	5.64	4.59	3.88	3.6	3.76	3.25	1
C=CCC1=C(C)C(OC(=O)C2C(C=C(C)C)C2(C)C)CC1=O (stereo unspecified) [Allethrin]	> 200	5.9	5.91	5.87	5.86	5.64	5.59	5.23	50
Nc1nc(N)c2nc(CNc3ccc(C(=O)NC(CCC(=O)O)C(=O)O)cc3)cnc2n1 (stereo unspecified) [Aminofolic acid, 4-]	> 200	5.89	5.91	5.86	5.86	5.82	5.82	5.39	200
CCCCc1oc2ccccc2c1C(=O)c1cc(I)c(OCCN(CC)CC)c(I)c1 [Amiodarone HCl]	31.9	5.9	5.96	5.82	5.72	4.41	3.85	3.8	50
Cc1ccc(/N=C/N(C)/C=N/c2ccc(C)cc2C)c(C)c1 [Amitraz]	200	6.02	5.93	6.14	5.97	5.95	6.57	4.72	200
C[C@]12CCC(=O)C=C1CC[C@@H]1[C@@H]2CC[C@]2(C)C(=O)CC[C@@H]12 [Androstenedione]	> 200	5.85	5.91	5.86	5.99	5.89	5.84	5.66	200
Clc1nc(Cl)nc(Nc2ccccc2Cl)n1 [Anilazine]	> 200	6.11	6.01	6.13	6.11	5.99	5.78	5	200
c1ccc2cc3ccccc3cc2c1 [Anthracene]	2.12	5.97	5.76	4.34	3.78	4.06	4.36	4.12	5
